The source of these data is ChEMBL document CHEMBL1147953, “9-Nitroanthracene derivative as a precursor of anthraquinone for photodynamic therapy” (Bioorg Med Chem, 2007).

SMILES strings stand for the structures. The source made the active and inactive calls. No cut-off for these calls is given here.

Experiment [1] has as its system Escherichia coli. Nature of the experiment: Induction of strand cleavage in pBR322 DNA after irradiation with 5 J/cm^2 assessed as conversion of supercoiled DNA to […] circular form at 200 uM.
Experiment [2] concerns Escherichia coli. Nature of the experiment: Induction of strand cleavage in pBR322 DNA in absence of irradiation assessed as conversion of supercoiled DNA to […] circular form at 200 uM.

As for `CN(C)CCCC(=O)Nc1ccc2cc3ccccc3cc2c1[N+](=O)[O-]`, in experiment [1], the result was Active. Also, in experiment [2], the outcome was inactive.
On to `CN(C)CCCC(=O)Nc1ccc2cc3ccccc3c([N+](=O)[O-])c2c1`, for which, in experiment [1], the result was Active. Further, the outcome in experiment [2] was inactive.
